This passage reports IC50 results from patent US20080200454A1, “CARBON-LINKED TETRAHYDRO-PYRAZOLO-PYRIDINE MODULATORS OF CATHEPSIN S” (priority 2007, published 2008).

Where two headings read alike, the source gives them in different places.

For this assay, the target named is Recombinant human cathepsin S (CatS) (Homo sapiens, UniProt P25774). Briefly: Recombinant human cathepsin S (CatS) inhibition assay, fluorogenic substrate Z-Valine-Valine-Arginine-AMC.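 Note: Baculovirus-expressed CatS in pH 5.0 sodium acetate buffer with DTT and NaCl, fluorescence read each minute over 20 min, inhibition derived from rate slope.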
Chain of Recombinant human cathepsin S (CatS) (P25774 115-331): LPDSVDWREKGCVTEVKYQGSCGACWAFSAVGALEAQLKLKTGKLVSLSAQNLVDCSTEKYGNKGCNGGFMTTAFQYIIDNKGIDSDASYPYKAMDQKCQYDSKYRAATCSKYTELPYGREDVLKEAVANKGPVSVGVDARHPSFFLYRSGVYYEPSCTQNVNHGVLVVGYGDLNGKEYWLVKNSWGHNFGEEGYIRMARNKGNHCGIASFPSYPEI

For the molecule `CS(=O)(=O)N1CCc2c(c(-c3ccc(Cl)c(C#Cc4ccc(CNCc5ccc(Cl)cc5)cc4)c3)nn2CCCN2CCC(N3CCCC3=O)CC2)C1` [Example 328, 1-(1-{3-[3-(4-Chloro-3-{[4-({[(4-chlorophenyl)methyl]amino}methyl)phenyl]ethynyl}phenyl)-5-(methylsulfonyl)-4,5,6,7-tetrahydro-1H-pyrazolo[4,3-c]pyridin-1-yl]propyl}piperidin-4-yl)pyrrolidin-2-one], where the note is “CatS IC50”, the IC50 (as a rule, the concentration that gives 50% inhibition) came to 0.02 µM.

`CS(=O)(=O)N1CCc2c(c(-c3ccc(Cl)c(C#Cc4ccc(CNCc5ccc(Cl)cc5)cc4)c3)nn2CCCN2CCNCC2)C1` [Example 368, 1-[4-({2-Chloro-5-[5-(methylsulfonyl)-1-(3-piperazin-1-ylpropyl)-4,5,6,7-tetrahydro-1H-pyrazolo[4,3-c]pyridin-3-yl]phenyl}ethynyl)phenyl]-N-[(4-chlorophenyl)methyl]methanamine]: for the setting “CatS IC50”, the IC50 is 0.33 µM.

`CS(=O)(=O)N1CCc2c(c(-c3ccc(Cl)c(C#Cc4ccc(Br)cc4)c3)nn2CCCN2CCOCC2)C1` [Example 18, 3-[3-(4-Bromo-phenylethynyl)-4-chloro-phenyl]-5-methanesulfonyl-1-(3-morpholin-4-yl-propyl)-4,5,6,7-tetrahydro-1H-pyrazolo[4,3-c]pyridine]: the half-maximal inhibitory concentration (IC50) is 0.18 µM.

Take `CS(=O)(=O)N1CCc2c(c(-c3ccc(Cl)c(C#Cc4ccc5c(c4)CN(C4CC4)CC5)c3)nn2CCCN2CCN(C3CC3)CC2)C1` [Example 276, 7-[(2-Chloro-5-{1-[3-(4-cyclopropylpiperazin-1-yl)propyl]-5-(methylsulfonyl)-4,5,6,7-tetrahydro-1H-pyrazolo[4,3-c]pyridin-3-yl}phenyl)ethynyl]-2-cyclopropyl-1,2,3,4-tetrahydroisoquinoline]: where the note is “CatS IC50”, the IC50 turned out to be 0.18 µM.

Take `CS(=O)(=O)N1CCc2c(c(-c3ccc(Cl)c(C#Cc4ccc(CNCc5ccc(Cl)cc5)cc4)c3)nn2CCCN2CCCNCC2)C1` [Example 391, 1-{4-[(2-Chloro-5-{1-[3-(1,4-diazepan-1-yl)propyl]-5-(methylsulfonyl)-4,5,6,7-tetrahydro-1H-pyrazolo[4,3-c]pyridin-3-yl}phenyl)ethynyl]phenyl}-N-[(4-chlorophenyl)methyl]methanamine]: the IC50 (CatS IC50) was determined as 0.26 µM.

On to `CS(=O)(=O)N1CCc2c(c(-c3ccc(Cl)c(CCc4cccc(CNCC5CCOCC5)c4)c3)nn2CCCN2CCOCC2)C1` [Example 186, 1-[3-(2-{2-Chloro-5-[5-(methylsulfonyl)-1-(3-morpholin-4-ylpropyl)-4,5,6,7-tetrahydro-1H-pyrazolo[4,3-c]pyridin-3-yl]phenyl}ethyl)phenyl]-N-(tetrahydro-2H-pyran-4-ylmethyl)methanamine], for which the IC50 (CatS IC50) came out at 0.69 µM.

`Cc1ccc(S(=O)(=O)NCCCc2cc(-c3nn(CCCN4CCC(N5CCCC5=O)CC4)c4c3CN(S(C)(=O)=O)CC4)ccc2Cl)cc1` [Example 92, N-{3-[2-Chloro-5-(5-methanesulfonyl-1-{3-[4-(2-oxo-pyrrolidin-1-yl)-piperidin-1-yl]-propyl}-4,5,6,7-tetrahydro-1H-pyrazolo[4,3-c]pyridin-3-yl)-phenyl]-propyl}-4-methyl-benzenesulfonamide]: the IC50 turned out to be 1.04 µM.

Consider `COC(=O)C(=O)N1CCc2c(c(-c3ccc(Cl)c(C#Cc4ccc(Cl)cc4)c3)nn2CCCN2CCOCC2)C1` [Example 136, [3-[4-Chloro-3-(4-chloro-phenylethynyl)-phenyl]-1-(3-morpholin-4-yl-propyl)-1,4,6,7-tetrahydro-pyrazolo[4,3-c]pyridin-5-yl]-oxo-acetic acid methyl ester], for which the IC50 is 0.05 µM.

As to `NC(=O)N1CCc2c(c(-c3ccc(Cl)c(C#Cc4cccc(CNCc5cccc(Cl)c5)c4)c3)nn2CCCN2CCSCC2)C1` [Example 514, 3-(4-Chloro-3-{[3-({[(3-chlorophenyl)methyl]amino}methyl)phenyl]ethynyl}phenyl)-1-(3-thiomorpholin-4-ylpropyl)-1,4,6,7-tetrahydro-5H-pyrazolo[4,3-c]pyridine-5-carboxamide], the IC50 (CatS IC50) is 0.14 µM.

Consider `CS(=O)(=O)N1CCc2c(c(-c3ccc(Cl)c(C#CCc4ccccc4)c3)nn2CCCN2CCOCC2)C1` [Example 41, 3-[4-Chloro-3-(3-phenyl-prop-1-ynyl)-phenyl]-5-methanesulfonyl-1-(3-morpholin-4-yl-propyl)-4,5,6,7-tetrahydro-1H-pyrazolo[4,3-c]pyridine], for which the IC50 came out at 3.95 µM.

Regarding `CS(=O)(=O)N1CCc2c(c(-c3ccc(Cl)c(C#Cc4ccc(CN[C@@H]5Cc6ccccc6[C@@H]5O)cc4)c3)nn2CCCN2CCN(c3ccccn3)CC2)C1` [Example 213, (1S,2R)-2-[({4-[(2-Chloro-5-{5-(methylsulfonyl)-1-[3-(4-pyridin-2-ylpiperazin-1-yl)propyl]-4,5,6,7-tetrahydro-1H-pyrazolo[4,3-c]pyridin-3-yl}phenyl)ethynyl]phenyl}methyl)amino]-2,3-dihydro-1H-inden-1-ol], the half-maximal inhibitory concentration (IC50) (CatS IC50) is 0.02 µM.

In the case of `NC(=O)N1CCc2c(c(-c3ccc(Cl)c(C#Cc4ccc(CN5CCC(N6CCCC6=O)CC5)cc4)c3)nn2CCCN2CCSCC2)C1` [Example 165, 3-{4-Chloro-3-[(4-{[4-(2-oxopyrrolidin-1-yl)piperidin-1-yl]methyl}phenyl)ethynyl]phenyl}-1-(3-thiomorpholin-4-ylpropyl)-1,4,6,7-tetrahydro-5H-pyrazolo[4,3-c]pyridine-5-carboxamide], the IC50 was determined as 0.83 µM.

On to `CC1CCCN(CCCCc2cc(-c3nn(CCCN4CCC(N5CCCC5=O)CC4)c4c3CN(S(C)(=O)=O)CC4)ccc2Cl)C1` (centres unmarked) [Example 111, 1-{1-[3-(3-{4-Chloro-3-[4-(3-methyl-piperidin-1-yl)-butyl]-phenyl}-5-methanesulfonyl-4,5,6,7-tetrahydro-pyrazolo[4,3-c]pyridin-1-yl)-propyl]-piperidin-4-yl}-pyrrolidin-2-one], for which the IC50 came out at 2.04 µM.

In the case of `NC(=O)C(=O)N1CCc2c(c(-c3ccc(Cl)c(C#Cc4ccc(CN[C@@H]5CCCc6ccccc65)cc4)c3)nn2CCCN2CCOCC2)C1` [Example 496, 2-[3-{4-Chloro-3-[(4-{[(1R)-1,2,3,4-tetrahydronaphthalen-1-ylamino]methyl}phenyl)ethynyl]phenyl}-1-(3-morpholin-4-ylpropyl)-1,4,6,7-tetrahydro-5H-pyrazolo[4,3-c]pyridin-5-yl]-2-oxoacetamide], the half-maximal inhibitory concentration (IC50) is 0.07 µM.

Regarding `CS(=O)(=O)N1CCc2c(c(-c3ccc(Cl)c(C#CCCO)c3)nn2CCCN2CCOCC2)C1` [Example 45, 4-{2-Chloro-5-[5-methanesulfonyl-1-(3-morpholin-4-yl-propyl)-4,5,6,7-tetrahydro-1H-pyrazolo[4,3-c]pyridin-3-yl]-phenyl}-but-3-yn-1-ol], under “CatS IC50, Table 2, average of results obtained”, the IC50 stood at 0.92 µM.

As for `CNCCCNC(=O)c1ccc(C#Cc2cc(-c3nn(CCCN4CCOC[C@@H]4C)c4c3CN(C(=O)C(N)=O)CC4)ccc2Cl)cc1` [Example 613, 4-{[5-(5-[Amino(oxo)acetyl]-1-{3-[(3S)-3-methylmorpholin-4-yl]propyl}-4,5,6,7-tetrahydro-1H-pyrazolo[4,3-c]pyridin-3-yl)-2-chlorophenyl]ethynyl}-N-[3-(methylamino)propyl]benzamide], the half-maximal inhibitory concentration (IC50) was found to be 0.04 µM.

With `CC(=O)NCC(=O)N1CCc2c(c(-c3ccc(Cl)c(C#Cc4ccc(CNCc5ccc(Cl)cc5)cc4)c3)nn2CCCN2CCOCC2)C1` [Example 499, N-{2-[3-(4-Chloro-3-{[4-({[(4-chlorophenyl)methyl]amino}methyl)phenyl]ethynyl}phenyl)-1-(3-morpholin-4-ylpropyl)-1,4,6,7-tetrahydro-5H-pyrazolo[4,3-c]pyridin-5-yl]-2-oxoethyl}acetamide], the IC50 amounted to 0.16 µM.

Consider `CS(=O)(=O)N1CCc2c(c(-c3ccc(Cl)c(C#Cc4ccc5c(c4)CNC5)c3)nn2CCCN2CCOCC2)C1` [Example 393, 3-[4-Chloro-3-(2,3-dihydro-1H-isoindol-5-ylethynyl)phenyl]-5-(methylsulfonyl)-1-(3-morpholin-4-ylpropyl)-4,5,6,7-tetrahydro-1H-pyrazolo[4,3-c]pyridine], for which, where the note is “CatS IC50”, the IC50 amounted to 0.22 µM.

Regarding `CS(=O)(=O)N1CCc2c(c(-c3ccc(Cl)c(C#Cc4ccc(CN5CCCCC5)cc4)c3)nn2CCCN2CCOCC2)C1` [Example 79, 3-[4-Chloro-3-(4-piperidin-1-ylmethyl-phenylethynyl)-phenyl]-5-methanesulfonyl-1-(3-morpholin-4-yl-propyl)-4,5,6,7-tetrahydro-1H-pyrazolo[4,3-c]pyridine], for the setting “CatS IC50”, the IC50 was 1.5 µM.

In the case of `CC(C)CNCc1cccc(CCc2cc(-c3nn(CCCN4CCOCC4)c4c3CN(S(C)(=O)=O)CC4)ccc2Cl)c1` [Example 531, N-{[3-(2-{2-Chloro-5-[5-(methylsulfonyl)-1-(3-morpholin-4-ylpropyl)-4,5,6,7-tetrahydro-1H-pyrazolo[4,3-c]pyridin-3-yl]phenyl}ethyl)phenyl]methyl}-2-methylpropan-1-amine], under “CatS IC50”, the IC50 worked out at 0.64 µM.

On to `COC(=O)C1CCN(CC(O)Cn2nc(-c3ccc(Cl)c(C#Cc4ccc(Cl)cc4)c3)c3c2CCN(S(C)(=O)=O)C3)CC1` (centres unmarked) [Example 127, 1-(3-{3-[4-Chloro-3-(4-chloro-phenylethynyl)-phenyl]-5-methanesulfonyl-4,5,6,7-tetrahydro-pyrazolo[4,3-c]pyridin-1-yl}-2-hydroxy-propyl)-piperidine-4-carboxylic acid methyl ester], for which the IC50 is 0.02 µM.

`NC(=O)N1CCc2c(c(-c3ccc(Cl)c(C#Cc4ccc(CNCc5ccc(Cl)cc5)cc4)c3)nn2CCCN2CCN(c3cccc[n+]3[O-])CC2)C1` [Example 454, 3-(4-Chloro-3-{[4-({[(4-chlorophenyl)methyl]amino}methyl)phenyl]ethynyl}phenyl)-1-{3-[4-(1-oxidopyridin-2-yl)piperazin-1-yl]propyl}-1,4,6,7-tetrahydro-5H-pyrazolo[4,3-c]pyridine-5-carboxamide]: the IC50 was 0.04 µM.

Turning to `NC(=O)C(=O)N1CCc2c(c(-c3ccc(Cl)c(C#Cc4ccc(CNCc5ccc(Cl)cc5)cc4)c3)nn2CCCN2CCCCC2)C1` [Example 449, 2-[3-(4-Chloro-3-{[4-({[(4-chlorophenyl)methyl]amino}methyl)phenyl]ethynyl}phenyl)-1-(3-piperidin-1-ylpropyl)-1,4,6,7-tetrahydro-5H-pyrazolo[4,3-c]pyridin-5-yl]-2-oxoacetamide], the IC50 worked out at 0.1 µM.
